From patent US5965699A (priority 1996, dated 1999)
Like-named read-outs stand apart in the source and are kept apart here. Where a SMILES comes first, the peptide text is derived from it. [ ]: non-standard residue; d: D form. Abu = CC[C@H](N)C(=O)O

How the values were obtained:
botox A [1] = biological target: T1, botox A (Clostridium botulinum, UniProt P0DPI1)
botox A [2] = biological target: T1, botox A; assay type: biochemical; parameters: Rate (initial rate of peptide hydrolysis) / Rate (initial rate of hydrolysis) In AcBSA: unit not given here; settings: for kcat: in 1/s
botox A [3] = biological target: T1, botox A; assay: biochemical; settings: for inhibition at 1000 µM: read-out: inhibition of hydrolysis of peptide [1-17]

T1 sequence (P0DPI1 2-448 limits assumed): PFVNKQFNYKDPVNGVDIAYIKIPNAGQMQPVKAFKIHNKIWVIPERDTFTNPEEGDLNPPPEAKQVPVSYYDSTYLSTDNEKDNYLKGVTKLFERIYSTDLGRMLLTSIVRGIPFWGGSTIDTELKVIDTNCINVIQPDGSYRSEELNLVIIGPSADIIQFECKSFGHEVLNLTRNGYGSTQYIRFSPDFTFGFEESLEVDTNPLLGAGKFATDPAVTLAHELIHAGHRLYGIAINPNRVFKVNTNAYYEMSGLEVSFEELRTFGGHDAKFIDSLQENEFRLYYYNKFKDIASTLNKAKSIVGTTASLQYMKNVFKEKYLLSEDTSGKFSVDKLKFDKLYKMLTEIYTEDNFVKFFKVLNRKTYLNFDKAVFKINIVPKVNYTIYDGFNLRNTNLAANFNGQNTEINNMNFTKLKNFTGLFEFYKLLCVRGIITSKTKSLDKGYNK

Molecule: ovalbumin
- effect on hydrolysis of substrate peptides by botox A (botox A [1]): no effect

Molecule: gelatin
- effect on hydrolysis of substrate peptides by botox A (botox A [1]): no effect

Molecule: lysozyme
- effect on hydrolysis of substrate peptides by botox A (botox A [1]): no effect

Molecule: Ac-SNKTRIDEAAQRATKML-NH2 [N10A, S N K T R I D E A A Q R A T K M L]
- hydrolysis by botox A, described in words (botox A [2]): only very slowly cleaved
- kcat as percent of that for peptide [1-17] (botox A [2]): about 4%
- kcat (botox A [2]): 1.8 ± 0.1
- inhibition at 1000 µM (botox A [3]): 30%

Molecule: Ac-SNKTRIDEANQRATK-NH2 [[1-15], S N K T R I D E A N Q R A T K]
- Relative Rate (initial hydrolysis rates relative to peptide [1-17]) (botox A [2]): 0.03
- hydrolysis by botox A, described in words (botox A [2]): very slow rate of hydrolysis
- kcat as percent of that for peptide [1-17] (botox A [2]): 2-3%
- kcat (botox A [2]): ~1.0
- inhibition at 1000 µM (botox A [3]): 17%

Molecule: ribonuclease
- effect on hydrolysis of substrate peptides by botox A (botox A [1]): no effect

Molecule: Ac-SNKTRIDEANQRLTKML-NH2 [A13L, S N K T R I D E A N Q R L T K M L]
- hydrolysis by botox A, described in words (botox A [2]): below the limits of detection
- Ki (botox A [3]): 1000 to 2000 µM
- inhibition at 1000 µM (botox A [3]): 30%

Molecule: CC[C@H](NC(=O)[C@H](CC(=O)O)NC(=O)[C@@H](NC(=O)[C@H](CCCNC(=N)N)NC(=O)[C@H](CC)NC(=O)[C@H](CCCNC(=N)N)NC(=O)[C@H](CC(N)=O)NC(=O)[C@H](CO)NC(C)=O)[C@@H](C)CC)C(=O)N[C@@H](C)C(=O)N[C@@H](CC(N)=O)C(=O)N[C@@H](CCC(N)=O)C(=O)N[C@@H](CCCNC(=N)N)C(=O)N[C@@H](C)C(=O)N[C@H](C(=O)N[C@@H](CCCNC(=N)N)C(=O)N[C@@H](CCSC)C(=O)N[C@@H](CC(C)C)C(N)=O)[C@@H](C)O [peptide 6, S N R B R I D B A N Q R A T R M L] (Ac-SNR[Abu]RID[Abu]ANQRATRML-NH2)
- Kcat In AcBSA (botox A [2]): 86 s⁻¹
- Kcat In BSA (botox A [2]): 89 s⁻¹
- Rate (initial rate of hydrolysis) In AcBSA (botox A [2]): 25
- Rate (initial rate of hydrolysis) In BSA (botox A [2]): 24
- Rate (initial rate of peptide hydrolysis) (botox A [2]): 25.3 ± 0.7
- Relative Rate (botox A [2]): 3.3
- hydrolysis by botox A, described in words (botox A [2]): more than three times faster
- Km (botox A [2]; read-out: Km In AcBSA): 400 µM
- Km (botox A [2]; read-out: Km In BSA): 520 µM

Molecule: Ac-SNKTRIDEANNRATKML-NH2 [Q11N, S N K T R I D E A N N R A T K M L]
- hydrolysis by botox A, described in words (botox A [2]): slowed but did not eliminate hydrolysis
- kcat (botox A [2]): 19 ± 3
- Km (botox A [2]; read-out: Km): 750 ± 80 µM

Molecule: Ac-SNKTRIDEANQRATAML-NH2 [K15A, S N K T R I D E A N Q R A T A M L]
- hydrolysis by botox A, described in words (botox A [2]): significantly lower hydrolysis rate
- kcat (botox A [2]): ~8.0
- Km (botox A [2]; read-out: Km): ~1000 µM

Molecule: CC[C@H](NC(=O)[C@H](CCCNC(=N)N)NC(=O)[C@H](CC(N)=O)NC(=O)[C@H](CO)NC(C)=O)C(=O)N[C@@H](CCCNC(=N)N)C(=O)N[C@H](C(=O)N[C@@H](CC(=O)O)C(=O)N[C@@H](CCC(N)=O)C(=O)N[C@@H](C)C(=O)N[C@@H](CC(N)=O)C(=O)N[C@@H](CCC(N)=O)C(=O)N[C@@H](CCCNC(=N)N)C(=O)N[C@@H](C)C(=O)N[C@H](C(=O)N[C@@H](CCCNC(=N)N)C(=O)N[C@@H](CCSC)C(=O)N[C@@H](CC(C)C)C(N)=O)[C@@H](C)O)[C@@H](C)CC [peptide 7, S N R B R I D Q A N Q R A T R M L] (Ac-SNR[Abu]RIDQANQRATRML-NH2)
- Kcat In AcBSA (botox A [2]): 73 s⁻¹
- Rate (initial rate of hydrolysis) In AcBSA (botox A [2]): 22
- Rate (initial rate of hydrolysis) In BSA (botox A [2]): 14
- Rate (initial rate of peptide hydrolysis) (botox A [2]): 14.1 ± 0.7
- Relative Rate (botox A [2]): 1.9
- Km (botox A [2]; read-out: Km In AcBSA): 310 µM

Molecule: CC[C@H](NC(=O)[C@H](CCC(=O)O)NC(=O)[C@H](CC(=O)O)NC(=O)[C@@H](NC(=O)[C@H](CCCNC(=N)N)NC(=O)[C@@H](NC(=O)[C@H](CCCCN)NC(=O)[C@H](CC(N)=O)NC(=O)[C@H](CO)NC(C)=O)[C@@H](C)O)[C@@H](C)CC)C(=O)N[C@@H](CC(N)=O)C(=O)N[C@@H](CCC(N)=O)C(=O)N[C@@H](CCCNC(=N)N)C(=O)N[C@@H](C)C(=O)N[C@H](C(=O)N[C@@H](CCCCN)C(=O)N[C@@H](CCSC)C(=O)N[C@@H](CC(C)C)C(N)=O)[C@@H](C)O [A9B, S N K T R I D E B N Q R A T K M L] (Ac-SNKTRIDE[Abu]NQRATKML-NH2)
- decrease in kcat compared with peptide [1-17] (botox A [2]): about 75%
- hydrolysis by botox A, described in words (botox A [2]): still a good substrate
- kcat (botox A [2]): 11 ± 1
- Km (botox A [2]; read-out: Km): 1100 ± 100 µM

Molecule: Ac-TRIDEANQRATKM-NH2 [13-residue peptide]
- reduction in rate of botox A-catalyzed hydrolysis (botox A [2]): 43%
